According to publication PMC11749787, “Natural flavonoid glycosides Chrysosplenosides I & A rejuvenate intestinal stem cell aging via activation of PPARγ signaling” (Life Medicine, 2024):

Molecular target: T1, PPARγ (peroxisome proliferator-activated receptor-gamma) (Homo sapiens, UniProt P37231)
T1 construct: gene PPARG; human PPARγ protein with a His tag (HY-P7999, MCE)
T1 sequence (P37231 1-505): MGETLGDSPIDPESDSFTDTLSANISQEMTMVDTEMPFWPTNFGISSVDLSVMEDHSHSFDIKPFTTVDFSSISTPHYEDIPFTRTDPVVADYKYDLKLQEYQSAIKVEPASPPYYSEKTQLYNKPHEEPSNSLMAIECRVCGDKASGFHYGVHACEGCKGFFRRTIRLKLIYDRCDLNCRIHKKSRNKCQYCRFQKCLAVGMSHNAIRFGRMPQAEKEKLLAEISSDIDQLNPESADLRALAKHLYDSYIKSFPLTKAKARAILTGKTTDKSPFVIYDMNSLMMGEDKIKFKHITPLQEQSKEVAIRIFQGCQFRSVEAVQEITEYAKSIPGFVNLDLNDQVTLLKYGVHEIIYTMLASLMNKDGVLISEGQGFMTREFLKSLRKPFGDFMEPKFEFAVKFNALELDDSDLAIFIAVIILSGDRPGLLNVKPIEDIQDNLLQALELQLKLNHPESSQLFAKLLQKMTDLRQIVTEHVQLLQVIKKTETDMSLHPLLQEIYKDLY
Experiment: bio-layer interferometry (Octet K2, NTA biosensor, immobilized His-tagged PPARγ)
Format: binding

Kd [µM] | Compound
75.3 | COc1cc(O[C@@H]2O[C@H](CO)[C@@H](O)[C@H](O)[C@H]2O)c(-c2oc3cc(OC)c(OC)c(O)c3c(=O)c2OC)cc1O [CA1, Chrysosplenoside I]
32.4 | Chrysosplenoside A [CA2]
